System: human neuroblastoma line BE(2)-M17 (M17) cells
Assay: Measurement of Fe efflux from cells
Assay type: cell-based
Conditions: M17 cells pre-loaded with 57Fe, compound 20 μM for 2 h, percentage increase of Fe in media relative to media without compound, read-out: % Fe Efflux Range
Experimental: Method I: Measurement of Fe Efflux from Cells
Compounds of the current invention were assessed for their ability to efflux iron (Fe) from a cell using the following protocol.
The human neuroblastoma line BE(2)-M17 (M17) cell cultures were acquired from Sigma Aldrich (Catalogue #: 95011816). M17 Cells were maintained in Opti-MEM reduced serum media supplemented with 10% fetal bovine serum (Bovogen, SFBSF) and passaged twice weekly. Cells were cultured at 37° C. in the presence of 5% CO2. Culture supplies were sourced from Thermo Fisher unless otherwise stated.
A solution of ^57Fe cold isotope was prepared by dissolving ^57Fe metal (>95% enrichment, Trace Sciences International) in concentrated HCl to give a final concentration of 573 mM. From this master solution, a 10 mM working solution was prepared in sterile water. The working solution was used within two months of preparation.
M17 cells were loaded with iron initially by seeding into 48-well plates at a density of 0.15×10^6 cells per well in 0.5 mL media. After 48 h, old media was discarded. Fresh media was supplemented with 20 μM ^57Fe isotope, from the 10 mM ^57Fe working solution. Cells received 0.2 mL of this ^57Fe enriched media and were returned to the incubator for 20 h. The ability of experimental compounds to efflux iron was determined by the dissolution of compounds in DMSO and diluted in Hanks' Balanced Salt Solution (HBSS) for treatment of M17 cells. After ^57Fe incubation, cells were rinsed twice with HBSS and treated with 0.15 mL trial compound for 2 h at a concentration of 20 μM. All assays included a relevant vehicle (0.4%-0.8% DMSO) as well as a positive control (20 μM). Following the treatment period, 0.1 mL of media was collected from cells and the extracellular ^57Fe content was analysed via inductively coupled mass spectrometry (ICP-MS, Agilent 7700x series instrument).
To perform this protocol the following supplies were purchased from Sigma Aldrich: anhydrous dimethyl sulfoxide (DMSO, Catalogue #: 276855), Hanks' Balanced Salt Solution supplemented with 20 mM HEPES and 4.2 mM Sodium Bicarbonate (HBSS, pH: 7.4, Catalogue #: H1387).
After 2 h the Fe levels in the media were measured and the increase determined as a percentage increase relative to the cell media in the absence of the compound.

Row | Compound | activation at 20 µM [%]
1 | Oc1cccnc1-c1nc(-c2cccc(F)c2O)n2ncccc12 [Compound 121] | > 150
2 | Oc1cccnc1-c1nc(-c2cccc(Cl)c2O)n2ncccc12 [Compound 122] | > 150
3 | Cc1ccc(O)c(-c2nc(-c3ncccc3O)c3cccnn23)c1 [Compound 123] | > 150
4 | CN(C)Cc1cccc(-c2nc(-c3ccccc3O)c3ccccn23)c1O [Compound 124, 2-((Dimethylamino)methyl)-6-(1-(2-hydroxyphenyl)imidazo[1,5-a]pyridin-3-yl)phenol] | > 150
5 | COc1cnccc1-c1nc(-c2ccccc2O)c2ccccn12 [Compound 125] | < 30
6 | COC(=O)c1ccccc1-c1nc(-c2ncccc2O)c2ccccn12 [Compound 126] | < 30
7 | Oc1cccnc1-c1nc(-c2ccc(Cl)cc2)n2ccccc12 [Compound 127] | < 30
8 | Oc1cccnc1-c1nc(-c2ccccc2F)n2ccccc12 [Compound 130, 2-(3-(2-Fluorophenyl)imidazo[1,5-a]pyridin-1-yl)pyridin-3-ol] | < 30
9 | Oc1ccccc1-c1nc(-c2cccnc2O)c2ccccn12 [Compound 141, 3-(3-(2-Hydroxyphenyl)imidazo[1,5-a]pyridin-1-yl)pyridin-2-ol] | 100 to 150
10 | Cc1cccc(-c2nc(-c3cccnc3O)c3ccccn23)c1O [Compound 142] | 30 to 100
11 | Oc1cc(Cl)ccc1-c1nc(-c2cccnc2O)c2ccccn12 [Compound 143] | < 30
12 | Oc1ccc(F)cc1-c1nc(-c2cccnc2O)c2ccccn12 [Compound 144, 3-(3-(5-Fluoro-2-hydroxyphenyl)imidazo[1,5-a]pyridin-1-yl)pyridin-2-ol] | 100 to 150
13 | Oc1ncccc1-c1nc(-c2cc(F)cc(F)c2O)n2ccccc12 [Compound 145] | 100 to 150
14 | CCN(CC)c1ccc(-c2nc(-c3cccnc3O)c3ccccn23)c(O)c1 [Compound 146] | 30 to 100
15 | Cc1ccc(O)c(-c2nc(-c3cccnc3O)c3ccccn23)c1 [Compound 147, 3-(3-(2-Hydroxy-5-methylphenyl)imidazo[1,5-a]pyridin-1-yl)pyridin-2-ol] | 100 to 150
16 | Oc1ncccc1-c1nc(-c2cccc(F)c2O)n2ccccc12 [Compound 148] | 30 to 100
17 | Oc1ccc(Cl)cc1-c1nc(-c2cccnc2O)c2ccccn12 [Compound 149] | 30 to 100
18 | Oc1ncccc1-c1nc(-c2cccc(Cl)c2O)n2ccccc12 [Compound 150] | 30 to 100
19 | Oc1cccc(F)c1-c1nc(-c2cccnc2O)c2ccccn12 [Compound 152] | 30 to 100
20 | COc1ccncc1-c1nc(-c2ccccc2O)n2ccccc12 [Compound 153] | < 30
21 | COc1ccncc1-c1nc(-c2cc(F)ccc2O)n2ccccc12 [Compound 154] | < 30
22 | COc1ccncc1-c1nc(-c2cc(F)cc(F)c2O)n2ccccc12 [Compound 155] | < 30

Row | Compound | activation at 20 µM [%]
23 | COc1ccncc1-c1nc(-c2c(O)cccc2F)n2ccccc12 [Compound 156] | < 30
24 | COc1ccncc1-c1nc(-c2cccc(F)c2O)n2ccccc12 [Compound 157] | < 30
25 | Oc1ccncc1-c1nc(-c2ccccc2O)n2ccccc12 [Compound 158] | 30 to 100
26 | Oc1ccncc1-c1nc(-c2cc(F)ccc2O)n2ccccc12 [Compound 159] | 30 to 100
27 | Oc1ccncc1-c1nc(-c2cc(F)cc(F)c2O)n2ccccc12 [Compound 160] | 30 to 100
28 | Oc1ccncc1-c1nc(-c2c(O)cccc2F)n2ccccc12 [Compound 161] | 30 to 100
29 | Oc1ccncc1-c1nc(-c2cccc(F)c2O)n2ccccc12 [Compound 162] | 30 to 100
30 | COc1ccncc1-c1nc(-c2cccc(C)c2O)n2ccccc12 [Compound 163] | < 30
31 | CN(C)Cc1cccc(-c2nc(-c3cccnc3O)c3ccccn23)c1O [Compound 168] | < 30
32 | Cc1ccc(O)c(-c2nc(-c3cnccc3O)c3ccccn23)c1 [Compound 169] | 30 to 100
33 | Oc1ccncc1-c1nc(-c2cccc(Cl)c2O)n2ccccc12 [Compound 171] | 30 to 100
34 | Oc1ccncc1-c1nc(-c2c(O)cccc2Cl)n2ccccc12 [Compound 172] | 30 to 100
35 | Oc1cnccc1-c1nc(-c2ccccc2O)n2ccncc12 [Compound 174] | > 150
36 | Oc1cnccc1-c1nc(-c2cccc(F)c2O)n2ccncc12 [Compound 175] | > 150
37 | Cc1cccc(-c2nc(-c3ccncc3O)c3cnccn23)c1O [Compound 177] | > 150
38 | Oc1cnccc1-c1nc(-c2cc(F)ccc2O)n2ccncc12 [Compound 178] | > 150
39 | Oc1cnccc1-c1nc(-c2cc(Cl)ccc2O)n2ccncc12 [Compound 179] | > 150
40 | Cc1ccc(O)c(-c2nc(-c3ccncc3O)c3cnccn23)c1 [Compound 180] | > 150
41 | Oc1cnccc1-c1nc(-c2ccccc2O)n2ncccc12 [Compound 181] | 100 to 150
42 | Cc1ccc(O)c(-c2nc(-c3ccncc3O)c3cccnn23)c1 [Compound 182] | 30 to 100
43 | Oc1cnccc1-c1nc(-c2ccccc2O)n2cccnc12 [Compound 185] | 100 to 150
44 | Cc1ccc(O)c(-c2nc(-c3ccncc3O)c3ncccn23)c1 [Compound 186] | 30 to 100

Source: patent US10941143B2, “Imidazo [1,5-a]pyridine compounds and their use” (Alterity Therapeutics Limited, priority 2019, dated 2021)
